In patent US9629828B2, “Methods of treating traveler's diarrhea and hepatic encephalopathy” (priority 2008, dated 2017):
“And” between values parts separate entries of the source, which are not always exact repeats. Identical values can stand only once. “Also recorded” adds a separate entry of the source.

Key:
[1] = system: subjects in remission from hepatic encephalopathy (HE); assay: First study (3001): time to first breakthrough overt HE episode, rifaximin 550 mg BID vs placebo, 6 months; assay type: in vivo, human
Excerpt: Study 3001 was designed to continuously monitor patients to ensure the validity and completeness of HE breakthrough capture. Following screening, subjects entered a treatment period that included weekly visits and/or phone calls with patients and caregivers. Subjects were followed for the protocol specified 168 days. Complete capture of breakthrough events as well as mortality and provided assurance of the validity of the study outcome. Narratives for each subject experiencing HE breakthrough, AE's resulting in termination, SAEs or death were provided in the NDA.
Eligible subjects had 2 episodes of HE associated with chronic liver disease in the previous 6 months.
Patients had MELD scores of either […] (27%) or 11 to 18 (64%) at baseline. No patients were enrolled with a MELD score of >25. Nine percent of the patients were Child-Pugh Class C. Lactulose was concomitantly used by 91% of the patients in each treatment arm of the study. Per the study protocol, patients were withdrawn from the study after experiencing a breakthrough HE episode.
The primary endpoint was the time to first breakthrough overt HE episode. A breakthrough overt HE episode was defined as a marked deterioration in neurological function and an increase of Conn score to Grade ≧2. In patients with a baseline Conn score of 0, a breakthrough overt HE episode was defined as an increase in Conn score of 1 and asterixis grade of 1.
An efficacy endpoint was the time to first breakthrough overt HE episode. A breakthrough overt HE episode was defined as an increase of Conn score to Grade ≧2 (e.g., 0 or 1 to ≧2) or an increase in Conn and asterixis score of 1 grade each for those subjects who entered the study with a Conn score of 0. Time to breakthrough overt HE episode was the duration from time of first dose of study drug to the first breakthrough overt HE episode. […] Subjects who terminated early for reasons other than breakthrough overt HE were contacted at 6 months from randomization to determine if subjects had experienced a breakthrough overt HE episode or other outcome (e.g., mortality status); and, if the subject had no breakthrough overt HE event prior to contact, he/she was censored at the time of contact. […] Subjects in the study had ≧2 episodes of overt HE equivalent to Conn score ≧2 within 6 months prior to screening (i.e., subjects had documented recurrent, overt HE). At the baseline assessment, subjects were in remission with a Conn score of 0 or 1. A breakthrough overt HE episode, as defined above, was a marked deterioration in neurological function.
Presented herein are the results of the first study and second study. […] The primary efficacy endpoint was the time to breakthrough overt HE. Breakthrough overt HE was defined as an increase of Conn score to Grade ≧2 (e.g., 0 or 1 to ≧2) or an increase in Conn and asterixis score of 1 grade each for those subjects who entered the study with a Conn score of 0. Subjects discontinued from the study at the time of breakthrough overt HE episode. After participation in the first study, subjects had the option to enroll in the open-label, treatment-extension study (the second study).
FIG. 1 illustrates Kaplan-Meier estimates of time to first breakthrough overt HE episode by treatment group in the ITT population. Table 18 presents Kaplan-Meier estimates of the proportions of subjects who experienced breakthrough overt HE over the course of the Treatment Period and results of statistical analyses. […] Subjects who terminated early for reasons other than breakthrough overt HE (e.g., liver transplant, AE, subject request) were contacted at 6 months from date of randomization to determine if subjects had experienced a breakthrough overt HE episode or other outcome (e.g., mortality status). Subjects without breakthrough overt HE were censored at the time of contact or death, whichever was earlier.

[2] = system: subjects with a history of recurrent, overt, episodic HE; assay: Second study: changes in Conn scores and asterixis grades; assay type: in vivo, human
Excerpt: Normalizing for subject exposure, this represents a hospitalization rate of 0.60 event/PEY. A total of 59 were hospitalized due HE episodes (e.g., HE-caused). Normalizing for subject exposure, this represents an HE-caused hospitalization rate of 0.29 event/PEY. […] All subjects were capable of worsening over time, and 24/266 subjects (9.0%) did so by 1 or 2 grades.
The last visit for the second study is the last visit recorded for the interim analysis.
A total of 65.5% of subjects (220 of 337) had no change in Conn score and 21.1% (71 of 337) had improvements in Conn score from baseline to last visit. […] No change from baseline in asterixis grade was reported for 75.2% of subjects (252 of 337), and 17.3% had improvements.

cytochrome P450 2C19 = biological target: T1, cytochrome P450 2C19 (Homo sapiens, UniProt P33261); assay: In vitro cytochrome P450 inhibition; assay type: in vitro ADME; settings: 2 to 200 ng/mL
T1 construct: from tissue; host or cells: human liver fractions

CYP3A4 [3] = biological target: T2, CYP3A4 (Homo sapiens, UniProt P08684); assay: In vitro cytochrome P450 inhibition; assay type: in vitro ADME; settings: 2 to 200 ng/mL
T2 construct: from tissue; host or cells: human liver fractions

P-glycoprotein = P-glycoprotein (Homo sapiens, UniProt P08183); assay: In vitro P-glycoprotein substrate study (efflux ratio, verapamil); assay type: in vitro ADME
Excerpt: Therefore, no clinically significant interactions with other drugs affected by P-glycoprotein are anticipated.

rabbits = settings: rabbit, in vivo
Excerpt: (§1) These effects include cleft palate, agnatha, jaw shortening, hemorrhage, eye partially open, small eyes, brachygnathia, incomplete ossification, and increased thoracolumbar vertebrae.

rats = settings: rat, in vivo
Excerpt: as §1

epithelial cells = assay: Effects of rifaximin on mammalian epithelial cells; assay type: cell-based
[4] = system: subjects in remission from hepatic encephalopathy (HE); assay: First study: HE-related, HE-caused and all-cause hospitalization; assay type: in vivo, human
CYP3A4 [5] = assay: Clinical drug interaction: rifaximin 550 mg TID on oral midazolam
[6] = all rifaximin experience, 337 subjects

Chain of P-glycoprotein (P08183 whole entry): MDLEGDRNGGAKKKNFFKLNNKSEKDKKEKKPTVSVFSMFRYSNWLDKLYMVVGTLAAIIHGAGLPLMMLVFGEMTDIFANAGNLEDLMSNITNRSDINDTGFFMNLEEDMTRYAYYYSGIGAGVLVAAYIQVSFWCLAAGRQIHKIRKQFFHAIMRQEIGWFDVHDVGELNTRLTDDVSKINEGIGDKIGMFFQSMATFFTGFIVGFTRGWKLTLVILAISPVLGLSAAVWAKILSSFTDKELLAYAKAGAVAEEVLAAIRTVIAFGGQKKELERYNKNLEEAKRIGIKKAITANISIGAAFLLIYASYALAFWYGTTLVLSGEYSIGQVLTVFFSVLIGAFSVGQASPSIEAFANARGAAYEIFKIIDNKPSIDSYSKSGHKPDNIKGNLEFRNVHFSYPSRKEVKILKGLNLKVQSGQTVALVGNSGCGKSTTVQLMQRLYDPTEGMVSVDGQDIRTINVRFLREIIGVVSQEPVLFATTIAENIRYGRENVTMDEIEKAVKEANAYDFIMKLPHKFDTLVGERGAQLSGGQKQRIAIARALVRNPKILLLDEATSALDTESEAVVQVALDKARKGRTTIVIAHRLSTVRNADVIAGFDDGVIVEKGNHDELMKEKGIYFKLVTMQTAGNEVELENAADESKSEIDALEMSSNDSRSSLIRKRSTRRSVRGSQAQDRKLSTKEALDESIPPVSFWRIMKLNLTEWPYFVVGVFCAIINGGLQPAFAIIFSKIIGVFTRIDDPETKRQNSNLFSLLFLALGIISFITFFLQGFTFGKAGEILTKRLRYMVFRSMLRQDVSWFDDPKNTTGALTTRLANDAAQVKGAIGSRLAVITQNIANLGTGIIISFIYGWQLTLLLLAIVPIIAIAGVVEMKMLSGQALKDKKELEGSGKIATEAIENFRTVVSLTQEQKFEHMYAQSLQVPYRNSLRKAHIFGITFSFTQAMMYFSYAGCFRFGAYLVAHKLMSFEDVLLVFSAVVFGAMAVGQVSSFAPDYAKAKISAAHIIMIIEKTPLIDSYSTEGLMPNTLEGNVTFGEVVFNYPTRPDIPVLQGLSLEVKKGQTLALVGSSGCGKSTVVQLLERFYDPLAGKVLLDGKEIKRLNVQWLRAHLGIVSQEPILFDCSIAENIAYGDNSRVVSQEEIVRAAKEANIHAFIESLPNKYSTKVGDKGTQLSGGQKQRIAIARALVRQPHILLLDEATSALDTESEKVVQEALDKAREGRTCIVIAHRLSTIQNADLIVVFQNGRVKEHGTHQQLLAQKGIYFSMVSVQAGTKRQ
T2 sequence (P08684 whole entry): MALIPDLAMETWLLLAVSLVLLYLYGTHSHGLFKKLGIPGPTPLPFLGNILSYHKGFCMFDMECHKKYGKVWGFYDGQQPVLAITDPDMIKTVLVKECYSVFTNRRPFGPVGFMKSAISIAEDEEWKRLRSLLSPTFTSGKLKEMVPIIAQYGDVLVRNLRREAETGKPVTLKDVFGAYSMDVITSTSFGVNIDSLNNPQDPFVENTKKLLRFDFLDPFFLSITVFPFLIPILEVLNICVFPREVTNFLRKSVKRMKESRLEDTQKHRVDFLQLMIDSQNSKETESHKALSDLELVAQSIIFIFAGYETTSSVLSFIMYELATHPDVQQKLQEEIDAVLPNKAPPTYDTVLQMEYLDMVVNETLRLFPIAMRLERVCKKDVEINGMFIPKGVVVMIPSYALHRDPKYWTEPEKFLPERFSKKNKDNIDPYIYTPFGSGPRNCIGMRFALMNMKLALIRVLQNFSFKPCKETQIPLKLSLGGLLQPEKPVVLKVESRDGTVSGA
T1 sequence (P33261 whole entry): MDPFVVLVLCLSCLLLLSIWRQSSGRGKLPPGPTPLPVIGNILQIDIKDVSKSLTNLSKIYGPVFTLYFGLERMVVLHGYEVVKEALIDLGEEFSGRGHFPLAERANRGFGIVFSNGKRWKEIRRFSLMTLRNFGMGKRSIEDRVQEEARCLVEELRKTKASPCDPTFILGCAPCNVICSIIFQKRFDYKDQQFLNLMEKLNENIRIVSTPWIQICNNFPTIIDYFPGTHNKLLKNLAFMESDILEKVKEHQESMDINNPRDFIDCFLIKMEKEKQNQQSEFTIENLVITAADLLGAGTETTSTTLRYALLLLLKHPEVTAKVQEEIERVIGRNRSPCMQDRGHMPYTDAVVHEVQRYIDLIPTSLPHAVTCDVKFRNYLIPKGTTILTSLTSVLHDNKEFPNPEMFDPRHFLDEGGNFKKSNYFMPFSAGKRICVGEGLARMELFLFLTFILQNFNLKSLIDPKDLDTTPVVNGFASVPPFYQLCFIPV

CO[C@H]1/C=C/O[C@@]2(C)Oc3c(C)c(O)c4c(O)c(c5c(nc6cc(C)ccn65)c4c3C2=O)NC(=O)/C(C)=C\C=C\[C@H](C)[C@H](O)[C@@H](C)[C@@H](O)[C@@H](C)[C@H](OC(C)=O)[C@@H]1C [rifaximin, (2S,16Z,18E,20S,21S,22R,23R,24R,25 S,26S,27S,28E)-5,6,21,23,25-pentahydroxy-27-methoxy-2,4,11,16,20,22,24,26-octamethyl-2,7-(epoxypentadeca-[1,11,13]trienimino)benzofuro[4,5-e]pyrido[1,2-á]-benzimidazole-1,15(2H)-dione,25-acetate]
reduction in risk of breakthrough overt HE vs placebo, adjusted for prognostic factors ([1]; 550 mg BID): 60% | reduction in risk of breakthrough overt HE vs placebo ([1]; 550 mg BID, 6-month treatment): 58% and 57.9% | subjects with breakthrough overt HE episodes ([1]; 550 mg BID, 6 months): 22% | subjects with breakthrough overt HE episodes ([1]; 550 mg BID, up to Day 170): 31 of 140 | Survival ([1]; N = 140; days: r10 [0-28), r11 [28-56), r12 [56-84), r13 [84-140), r14 [140-168), r15 >=168): 1.0000 and 0.9071 and 0.8783 and 0.8344 and 0.7820 and 0.7740 | time to first breakthrough overt HE by region ([1]; North America versus Russia): highly significant protective effect | Survival ([1]; by Baseline MELD Score Level, N = 11, days r10-r15 as E1301): 1.0000 and 0.9091 and 0.6364 | Survival ([1]; by Baseline MELD Score Level, N = 85, days r10-r15 as E1201): 1.0000 and 0.9059 and 0.8822 and 0.8459 and 0.7713 and 0.7580 | Survival ([1]; by Prior Lactulose Use, N = 123, days r10-r15 as E801): 1.0000 and 0.9024 and 0.8696 and 0.8278 and 0.7678 and 0.7586 | Survival ([1]; by Prior Lactulose Use, N = 127, days r11-r21 as E1401): 1.0000 and 0.9055 and 0.8737 and 0.8252 and 0.7754 and 0.7666 | patients experiencing a Conn Score of >=2 ([1]; component of breakthrough HE): 20% | patients with worsening of Conn and asterixis grade of 1 each ([1]; component of breakthrough HE): 2% | rate of breakthrough HE episodes adjusted for exposure ([1]; first study rifaximin group): 0.62 events/PEY | patients with zero events over 6 months ([1]; in vivo): 78% | time to breakthrough HE events vs placebo (FIG. 2) ([1]; in vivo): increased time to breakthrough HE events | subjects improved among those entering with asterixis scores of 1, 2, or 3 ([2]; 67 subjects): 64.2% | subjects with 1-grade asterixis improvement ([2]; 67 subjects): 50.7% | subjects with 2-grade asterixis improvement ([2]; 67 subjects): 6.0% | subjects with 3-grade asterixis improvement ([2]; 67 subjects): 7.5% | subjects with worsening asterixis, continuing rifaximin ([2]; 70 subjects): 8.6% | subjects improved among those entering with Conn scores of 1, 2, or 3 ([2]; 84 subjects): 64.3% | subjects with 1-grade Conn improvement ([2]; 84 subjects): 56.0% | subjects with 2-grade Conn improvement ([2]; 84 subjects): 8.3% | subjects improved in asterixis grade among those entering with grade ≧1 ([2]; 99 subjects): 58.6% | subjects improved to Conn score 0 among those entering with Conn ≧1 ([2]; 118 subjects): 62.2% | subjects with worsening asterixis, new rifaximin ([2]; 196 subjects): 6.1% | subjects with Conn worsening by 1 or 2 grades ([2]; 266 subjects): 9.0% | subjects with improvements in Conn scores at last visit ([2]; 266 subjects): 20.3% | subjects with improvements in asterixis scores ([2]; 266 subjects): 16.2% | subjects with mental status maintained or improved ([2]; 266 subjects): 91% | subjects with neuromotor symptoms maintained ([2]; 266 subjects): 83.3% | subjects with no change in Conn score at last visit ([2]; 266 subjects): 70.7% | subjects with no change in asterixis at last visit ([2]; 266 subjects): 77.1% | subjects with improvements in asterixis grade ([2]; all rifaximin experience): 17.3% | subjects with maintenance or improvements in asterixis grades ([2]; all rifaximin experience): > 90% | subjects with improvements in Conn score [2, 6]: 21.1% | subjects with no change in Conn score [2, 6]: 65.5% | subjects with no change in asterixis grade [2, 6]: 75.2% | subjects with maintenance or improvement in Conn scores ([2]; all rifaximin experience, up to 840 days): > 85% | inhibition of 2C19 (cytochrome P450 2C19): did not inhibit | inhibition of CYP3A4 (CYP3A4 [3]): did not inhibit | P-glycoprotein substrate (P-glycoprotein): substrate of P-glycoprotein; also recorded: substrate for P-glycoprotein | fertility / harm to the fetus (rabbits): no evidence of impaired fertility or harm to the fetus | fertility / harm to the fetus (rats): no evidence of impaired fertility or harm to the fetus | effect on epithelial cells (epithelial cells): resistant to bacterial colonization and internalization | all-cause hospitalization rate [4]: 0.92 events/PEY and 0.90 events/PEY | CYP3A4 induction in vivo / midazolam exposure (CYP3A4 [5]): only slightly reduced exposure; also recorded: weak inducer of CYP3A4
